Measured values from patent US10391084B2, “Methods and compositions to treat cancer” (CHILDREN'S HOSPITAL MEDICAL CENTER, priority 2013, dated 2019).
One block for each molecule: values may come before it.

Experiments:
[1] = system: midkine promoter coupled to a luciferase reporter gene; experiment: Midkine promoter-luciferase reporter screen in stably transfected HEK293 cells, dose-response; assay type: cell-based; conditions: for EC50: Homo sapiens, HEK293 reporter cells, midkine expression upregulated with retinoic acid
Protocol: A library of compounds was screened for activity to reduce expression of midkine in vitro. HEK293 cells were stably transfected with the pGL4 vector comprising a midkine promoter coupled to a luciferase reporter gene. […] Changes in luciferase production were measured to access the inhibitory activity of the test compounds. The primary screen included 44,000 test compounds. Test compounds that reduced cell viability by more than 50% were eliminated from the screen. From the primary screen, 351 test compounds were further examined. From the secondary screen, 78 test compounds were examined using a dose-response assay, and the EC50 for the test compounds was determined.
In order to find a therapeutic compound that inhibits MDK expression, a MDK reporter cell line by stably transfecting HEK293 cells with a MDK promoter-fused luciferase construct was developed. This modified cell line was used to screen 44,000 compounds at the Drug Discovery Center at the University of Cincinnati. See Example 1. Detection of luciferase activity was used to identify MDK inhibitors.

XIAP = experiment: Immunoblot of XIAP in H441 cells; assay type: cell-based, human; conditions: H441, dose- and time-dependent
Protocol: (§1) Immunoblot analysis: cells were lysed in ice-cold lysis buffer [1% Triton X-100, 20 mM Tris-HCl (pH 8.0), 137 mM NaCl, 10% glycerol (v/v), 2 mM EDTA, 1 mM sodium orthovanadate (v/v), 1 mM phenylmethylsulfonyl fluoride]. Cell lysates were clarified by centrifugation (10 min at 15,000×g at 4° C.) and protein concentration determined using the BCA protein assay (Thermo Fisher Scientific, Rockford, Ill.). Equal amounts of protein were separated on an SDS-PAGE gel. The gel was electrophoretically transferred to a Hybond PVDF transfer membrane (Amersham, Arlington Heights, Ill.) and incubated with primary and secondary antibodies according to the Supersignal® West Pico chemiluminescence protocol (Pierce, Rockford, Ill.). Antibody specific for β-actin antibody was obtained from Sigma (St. Louis, Mo.) and antibody specific for human MDK was obtained from Abcam (Cambridge, UK). Antibody specific for caspase-3, PI3 kinase p85, phosphorylated-PI3K p85 (Tyr458)/p55 (Tyr199), AKT, phosphorylated-AKT (Ser473), Bad, XIAP, survivin were obtained from Cell Signaling Technology (Beverly, Mass.). Antibody specific for VEGF was purchased from Santa Cruz Biotechnology (Santa Cruz, Calif.). Secondary horseradish peroxidase-conjugated antibodies were obtained from Jackson Immunoresearch Laboratories (West Grove, Pa.). […]

caspase-3 = experiment: Immunoblot of caspase-3 cleavage in H441 cells; assay type: cell-based, human; conditions: H441, even at the lowest concentrations (5 nM), 48 hours after treatment
Protocol: as §1

BAD = experiment: Immunoblot of BAD in H441 cells; assay type: cell-based, human; conditions: H441, dose- and time-dependent
Protocol: as §1

PI3K = experiment: Immunoblot of PI3K phosphorylation in H441 cells; assay type: cell-based, human; conditions: H441, dose- and time-dependent
Protocol: as §1

[2] = system: H441 lung adenocarcinoma cells; experiment: Cell viability assay, trypan blue exclusion, H441; assay type: cell-based, human
From the text: (§2) Cell Lines and Culture Conditions: the human pulmonary adenocarcinoma cells H322, H358, H441 and A549 and the human lung squamous cell carcinoma cells H520 were obtained from the American Type Culture Collection (Manassas, Va.) and grown in RPMI 1640 (H322, H358, H520) or high glucose Dulbecco's modified Eagle medium (H441, A549 cells) supplemented with 10% heat-inactivated fetal bovine serum. The human malignant mesothelioma cells ACC-MESO-1 (MESO-1) obtained from JCRB Cell Bank (Osaka, Japan) and the human lung squamous cell carcinoma cells SQ5 were grown in RPMI 1640 supplemented with 10% heat-inactivated fetal bovine serum. The normal human lung fibroblasts (NHLF) obtained from Clonetics (San Diego, Calif.) were grown in high glucose Dulbecco's modified Eagle medium. All cell lines were cultured in 10% CO2 at 37° C.
The following day 100 pmol of Smart Pool MK siRNA or nontargeting siRNA (Dharmacon, Perbio Science, France) was transfected using 2 μl Lipofectamine 2000 (Invitrogen Life Technologies, Carlsbad, Calif.) according to the manufacturer's instructions. […]
Cell viability assay: H441 cells, A549 cells, H520 cells, HEK293 cells and NHLF were plated in 24-well plates at a density of 1×10^5 cells and cultured at 37° C. for 24 hours. […] Viable cells were assessed by trypan blue exclusion. […]

[3] = system: H520 lung squamous cell carcinoma cells; experiment: Cell viability assay, trypan blue exclusion, H520; assay type: cell-based, human; conditions: H520, 0 to 500 nM, 48 hours after treatment
From the text: as §2
Cell viability assay: H441 cells, A549 cells, H520 cells, HEK293 cells and NHLF were plated in 24-well plates at a density of 1×10^5 cells and cultured at 37° C. for 24 hours. Medium was removed by aspiration and replaced with fresh culture medium containing iMDK dissolved in DMSO (10, 50, 100, 500 nmol/L). DMSO alone was used as the control. Cells were treated for 48 hours and collected by trypsinization. Viable cells were assessed by trypan blue exclusion. […]

H441 cells [4] = experiment: Flow cytometric analysis for apoptosis (sub-G0/G1 DNA content), H441; assay type: cell-based, human; conditions: 72 hours, DMSO control 1.24%
Protocol: (§3) Flow cytometric analysis for apoptosis: cells were plated in 24-well plates at a density of 0.5×10^5 cells per well 1 day before the treatments. After 72 hours, cells were harvested and washed once with PBS. Cells were resuspended in PBS containing 0.2% Triton X-100 and 1 mg/ml RNase for 5 min at room temperature and then stained with propidium iodide at 50 μg/ml to determine sub-G0/G1 DNA content using a FACScan. Doublets, cell debris, and fixation artifacts were gated out, and sub-G0/G1 DNA content was determined using Cell Quest Ver. 3.3 software.

AKT = experiment: Immunoblot of AKT phosphorylation in H441 cells; assay type: cell-based, human; conditions: H441, dose- and time-dependent
Protocol: as §1

NHLF cells = experiment: Flow cytometric analysis for apoptosis (sub-G0/G1 DNA content), NHLF; assay type: cell-based, human; conditions: DMSO control 0.32%
Protocol: as §3

[5] = Systemic toxicity in mice (body weight, serum AST and ALT); assay type: in vivo, BALB/c nude mice
Protocol: (§4) Mouse experiments: human lung cancer xenografts were established in 6-wk-old female BALB/c nude mice (Charles River Laboratories Japan, Kanagawa, Japan) by subcutaneous (s.c.) inoculation of H441 cells (1×10^6/50 μl) mixed with Matrigel® (BD Pharmingen, San Diego, Calif.; 50 μl) into the dorsal flank (Watanabe N, et al., Clin. Cancer Res. 2008; 14:4631-9). The mice were randomly assigned into three groups (n=8 per group) 14 days after tumor inoculations. One group of mice was intraperitonially injected with 100 μl solution containing iMDK (9 mg/kg) three days per week (on days 1, 3, 5, 8, 10) and another group of mice was injected five days per week (on days 1, 2, 3, 4, 5, 8, 9, 10). DMSO was injected into the control group. Tumors were measured two to three times a week, and tumor volume was calculated as a×b^2×0.5, where a and b were large and small diameters, respectively. On day 10, all mice were sacrificed after body weight was measured and tumors were removed and prepared for histology. For analysis of serum AST and ALT, blood was drawn from the heart 48 hours after intraperitonially injected with 100 μl solution containing iMDK (9 mg/kg). DMSO was injected into the control group and four mice were used for each group.

[6] = system: HEK293 embryonic kidney cells; experiment: Cell viability assay, trypan blue exclusion, HEK293; assay type: cell-based; conditions: HEK293, 0 to 500 nM, 48 hours after treatment
Protocol: Cell viability assay: H441 cells, A549 cells, H520 cells, HEK293 cells and NHLF were plated in 24-well plates at a density of 1×10^5 cells and cultured at 37° C. for 24 hours. Medium was removed by aspiration and replaced with fresh culture medium containing iMDK dissolved in DMSO (10, 50, 100, 500 nmol/L). DMSO alone was used as the control. Cells were treated for 48 hours and collected by trypsinization. Viable cells were assessed by trypan blue exclusion. Recombinant MDK was purchased from R&D Systems (Minneapolis, Minn.) and reconstituted in water for block experiments. For MDK block experiments, H441 cells were cultured in Dulbecco's modified Eagle medium supplemented with 1% heat-inactivated fetal bovine overnight and recombinant MDK (25 nM) or/and iMDK (25 nM) was added for an additional 48 hours.

[7] = system: xenografts derived from H441 lung adenocarcinoma cells; experiment: H441 lung adenocarcinoma xenograft in nude mice; assay type: in vivo, BALB/c nude mice; conditions: 9 mg/kg intraperitoneal
Protocol: as §4
For immunohistochemistry, sections were sequentially deparaffinized through a series of xylene, graded ethanol, and water immersion steps. After being autoclaved in 0.2% citrate buffer for 15 minutes, sections were incubated with 3% hydrogen peroxide for 30 minutes to block endogenous peroxidase activity. A primary antibody specific for PI3 kinase p85, phosphorylated-PI3K p85 (Tyr458)/p55 (Tyr199) from Cell Signaling Technology and for MDK from Abcam were used. Specimens were incubated overnight at 4° C. with a 1:200 dilution of antibody followed by three washes with TBS. The slides were treated with streptoavidin-biotin complex (Envision System labeled polymer, horseradish peroxidase (HRP), Dako, Carpinteria, Calif.) for 60 minutes at a dilution of 1:100. […]

survivin = experiment: Immunoblot of survivin in H441 cells; assay type: cell-based, human; conditions: H441, dose- and time-dependent
Protocol: as §1

H441 cells [8] = experiment: Hoechst staining for apoptotic morphology in H441 cells; assay type: cell-based, human; conditions: H441, Hoechst 33342, 48 hours after treatment
Protocol: Hoechst staining: the morphologic characteristics of apoptosis were evaluated using Hoechst 33342 dye (Molecular Probes, Eugene, Oreg.), which stains DNA. Cells were incubated with 1 μg/ml Hoechst dye and then visualized under a fluorescence microscope (IX81, Olympus Medical Systems Corp., Tokyo, Japan) (Ogawa N, et al., Int. J. Cancer. 1997; 73:367-70).

[9] = 48 hours after 9 mg/kg intraperitoneal

- EC50 [1]: 14 nM
SMILES: O=c1oc2ccccc2cc1-c1cn2cc(Cc3ccc(Cl)cc3)sc2n1 [Example compound 1]

SMILES: O=c1oc2ccccc2cc1-c1cn2cc(Cc3ccc(F)cc3)sc2n1 [Example compound 2, 3-[2-(4-fluorobenzyl)imidazo[2,1-beta][1,3]thiazol-6-yl]-2H-chromen-2-one]
- XIAP expression (XIAP): reduced
- cleaved forms of caspase-3 (caspase-3): induced
- BAD expression (BAD): induced
- Phosphorylation of PI3K (PI3K): suppressed
- cell growth ([2]; H441, 0 to 500 nM, 48 hours after treatment): dose-dependently inhibited cell growth
- suppression of cell growth with pretreatment of recombinant MDK ([2]; H441, recombinant MDK 25 nM, iMDK 25 nM, 48 hours): partially blocked
- cell growth [3]: dose-dependently inhibited cell growth
- sub-G0/G1 DNA content (H441 cells [4]; H441, 10 nM): 37.00%
- sub-G0/G1 DNA content (H441 cells [4]; H441, 25 nM): 60.91%
- Phosphorylation of AKT (AKT): suppressed
- sub-G0G1 DNA content (NHLF cells; 10 nM): 0.52%
- sub-G0G1 DNA content (NHLF cells; 25 nM): 1.51%
- body weight ([5]; 9 mg/kg intraperitoneal, day 10): did not influence
- serum level of ALT [5, 9]: did not influence
- serum level of AST [5, 9]: did not influence
- cell growth [6]: dose-dependently inhibited cell growth
- volume of the tumors versus control group ([7]; 3 or 5 times a week): significantly lower
- lung tumor growth ([7]; 3 or 5 times a week, from 14 days after inoculation): arrested
- Tunel staining, DNA fragmentation in tumors ([7]; xenograft tumors): detected DNA fragmentation
- activity to reduce expression of midkine (in words) ([1]; reporter screen, dose response): exceptional activity
- survivin expression (survivin): reduced
- nuclear fragmentation (H441 cells [8]): induced nuclear fragmentation in a dose-dependent manner

- EC50 [1]: 12.2 nM
SMILES: O=c1oc2ccccc2cc1-c1cn2cc(Cc3ccc(Br)cc3)sc2n1 [Example compound 3]

- EC50 [1]: 15.9 nM
SMILES: O=c1oc2ccccc2cc1-c1cn2cc(Cc3cc(Cl)ccc3Cl)sc2n1 [Example compound 4]
